Source: patent US6632793B1, “Immunological activity for a peptide of the limulus anti-LPS factor” (Centro de Ingenieria Genetica y Biotecnologia, priority 1997, dated 2003)

How the values were obtained:
Type in all cases: cell-based
[1] = system: Mengo virus on cell line Hep-2; test: Antiviral effect: inhibition of the cytopathic effect of Mengo virus on cell line Hep-2; details: 24 h pre-incubation; for Antiviral effect, 1: experiment 1; for Antiviral effect, 2: experiment 2; for Antiviral effect, 3: experiment 3; for Antiviral effect, Mean: mean of 3
Experimental: (§1) Then the cells were washed with saline solution and infected with […] of Mengo virus, provide by Institute of Molecular Biology, University of Zurich, which is multiplied in the cell line L929 murine fibroblasts. 18 h later degree of cell destruction was measured by fixation and staining, generally with crystal violet, for reading of cytophatic effect was used a photometer Ultramicroanalytical System (SUMA). A computer program in Pascal UCSD language for the microcomputer system was developed for all calculations and corrections (Ferrero et al., 1994, Biotecnologia Aplicada. Vol. 1:). In this case serial dilution's of human γ-IFN 70 000 IU/ml (MRI, Freeze-dried Reference Human Recombinant Gamma Interferon) was used as standard in order to define unit of antiviral activity. For this reason the antiviral protection shown by the peptide is related to International Units of γ-IFN (Ul/ml). As a negative control were used different peptides from proteins that bind endotoxin. LPS at 10 ng/ml was used as a positively control because is well known that it induced the production of IFNs (Manthey et al., 1994, J. Immunology. Vol. 153: 2653-2663). One unit of antiviral activity is define as the quantity of IFN able to produce an 50% inhibition of the viral replication.

human mononuclear cells = test: Antiviral effect on Hep-2 cells of supernatant from human mononuclear cells stimulated with peptide; details: for Antiviral effect of supernatant, 1: supernatant on Hep-2, experiment 1; for Antiviral effect of supernatant, 2: supernatant on Hep-2, experiment 2; for Antiviral effect of supernatant, 3: supernatant on Hep-2, experiment 3; for Antiviral effect of supernatant, Mean: supernatant on Hep-2, mean of 3
Experimental: as §1
Venous blood was obtained from healthy volunteers and Ficoll-Hypaque centrifugation, fractionated mononuclear cells. The mononuclear cells were washed and resuspended in endotoxin-free RPMI-1640 culture medium supplemented with 10% fetal calf serum. Concentration of 2×10^6 cells/ml were aliquoted into 24-well microtiter plates (Nunc, Denmark). The cells were then incubated with 14 and 28 μg/ml of different peptides: Limulus anti-LPS factor31-52 (LALF), Lipopolysaccharide Binding Protein86-99 (LBP) and 18 kDa Cationic Antimicrobial Protein108-128 (CAP-18), at 37° C. for 18 hours in 5% CO2. The cells were centrifuged at 3000 rpm for 5 min and then serial dilutions of supematants were assays for antiviral activity using the procedures described in the example 2.

[2] = system: TNFα from human mononuclear cells; test: TNF-α synthesis by human mononuclear cells (ELISA of supernatant); details: 18 h, mean of three donors
Experimental: Venous blood was obtained from healthy volunteers and Ficoll-Hypaque centrifugation, fractionated mononuclear cells. The mononuclear cells were washed and resuspended in endotoxic-free RPMI 1640 medium supplemented with 10% fetal calf serum. 30×10^6 cells were aliquoted into plates p-60 (Nunc, Denmark). The cells were incubated with 14 or 28 μg/ml LALF at 37° C. for 18 hours in 5% CO2 and then centrifuged at 3000 rpm during 5 min. The synthesis of TNFα in the supernatant was determined by specific enzyme-linked immunoadsorbent assay (ELISA), kindly provided by Dr. W. Buurman (University Hospital Maastrich, The Netherlands).

[3] = mononuclear cells stimulated with 14 μg/ml for 18 h
[4] = mononuclear cells stimulated with 28 μg/ml for 18 h

CAP-18 [reference compound]
Antiviral effect, 1 ([1]; Hep-2, 14 μg/ml): 9 IU/ml γ-IFN
Antiviral effect, 2 ([1]; Hep-2, 14 μg/ml): 8.7 IU/ml γ-IFN
Antiviral effect, 3 ([1]; Hep-2, 14 μg/ml): 9.2 IU/ml γ-IFN
Antiviral effect, Mean ([1]; Hep-2, 14 μg/ml): 8.9 IU/ml γ-IFN
Antiviral effect, 1 ([1]; Hep-2, 28 μg/ml): 12.2 IU/ml γ-IFN
Antiviral effect, 2 ([1]; Hep-2, 28 μg/ml): 9 IU/ml γ-IFN
Antiviral effect, 3 ([1]; Hep-2, 28 μg/ml): 9 IU/ml γ-IFN
Antiviral effect, Mean ([1]; Hep-2, 28 μg/ml): 10.9 IU/ml γ-IFN
Antiviral effect of supernatant, 1 (human mononuclear cells; [3]): 7.8 IU/ml γ-IFN
Antiviral effect of supernatant, 2 (human mononuclear cells; [3]): 8 IU/ml γ-IFN
Antiviral effect of supernatant, 3 (human mononuclear cells; [3]): 11 IU/ml γ-IFN
Antiviral effect of supernatant, Mean (human mononuclear cells; [3]): 8.93 IU/ml γ-IFN
Antiviral effect of supernatant, 1 (human mononuclear cells; [4]): 8.2 IU/ml γ-IFN
Antiviral effect of supernatant, 2 (human mononuclear cells; [4]): 9 IU/ml γ-IFN
Antiviral effect of supernatant, 3 (human mononuclear cells; [4]): 9.6 IU/ml γ-IFN
Antiviral effect of supernatant, Mean (human mononuclear cells; [4]): 8.93 IU/ml γ-IFN
TNF - α ([2]; 14 μg/ml): 0.76 ng/mL
TNF - α ([2]; 28 μg/ml): 0.75 ng/mL
